Literature values in PMC7439511 (Science Advances, 2020).

Test system: RACK7 (ZMYND8)

RACK7 binding to N-terminal tail of histone H3 | Substance
bind | H3K4me1: H3K4me1 peptide, amino acids 1 to 21
bind | H3K4me0: H3K4me0 (H3) peptide, amino acids 1 to 21
